From patent publication US10125134B2 (Mirati Therapeutics, Inc., priority 2016, dated 2018)

Tests used:
[1] = test system: NCI-H358 cells (express KRas G12C), Phospho-ERK; test: Cellular inhibition of KRas G12C: Phospho-ERK in NCI-H358 cells; format: cell-based; conditions: Homo sapiens, NCI-H358, 3 h, pERK(Thr202/Tyr204) normalized with GAPDH; NCI-H358 cells; 3 hours; read-out: IC50
Method in brief: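 IC50 derived by 4-parameter fit of GAPDH-normalized pERK(Thr202/Tyr204) signal, as percent of DMSO control. Signal came from in-cell immunodetection with infrared secondaries after 3 h compound exposure of KRas G12C NCI-H358 cells at 0.5% DMSO.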

KRas G12C = KRas G12C (Homo sapiens, UniProt P01116, C118S/C51S/C80L/G12C); test: KRas G12C Modification Assay (LCMS detection of covalent adduct); format: binding; conditions: normalized percent of control; tested at 5 μM concentration for 3 hours
Method in brief: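 Covalent modification was read by reverse-phase LC/MS of intact protein after compound exposure, each reaction stopped at its time point with 25 mM acetic acid. Unmodified-protein signal, taken as percent of total, was normalised to untreated protein and reported as POC.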

| SMILES | POC (KRas G12C) | IC50 [1] |
| --- | --- | --- |
| C=CC(=O)N1CCN(c2nc(OC[C@@H]3CCCN3C)nc3c2CCN(c2cccc(F)c2C(F)(F)F)C3)C[C@@H]1CC#N [Example 328, 2-((S)-1-acryloyl-4-(7-(3-fluoro-2-(trifluoromethyl)phenyl)-2-(((S)-1-methylpyrrolidin-2-yl)methoxy)-5,6,7,8-tetrahydropyrido[3,4-d]pyrimidin-4-yl)piperazin-2-yl)acetonitrile] | C (“C”>50% POC) | 0.1 to 1000 nM |
| C=CC(=O)N1CCN(c2nc(OC[C@@H]3CCCN3C)nc3c2CCN(c2cccc(OC)c2C(F)(F)F)C3)C[C@@H]1CC#N [Example 330, 2-[(2S)-4-[7-[3-methoxy-2-(trifluoromethyl)phenyl]-2-[[(2S)-1-methylpyrrolidin-2-yl]methoxy]-6,8-dihydro-5H-pyrido[3,4-d]pyrimidin-4-yl]-1-prop-2-enoyl-piperazin-2-yl]acetonitrile] | C (“C”>50% POC) | 0.1 to 1000 nM |
| C=CC(=O)N1CCN(c2nc(OC[C@@H]3C[C@@H](OC)CN3C)nc3c2CCN(c2cccc(Cl)c2C(F)(F)F)C3)C[C@@H]1CC#N [Example 332, 2-[(2S)-4-[7-[3-chloro-2-(trifluoromethyl)phenyl]-2-[[(2S,4R)-4-methoxy-1-methyl-pyrrolidin-2-yl]methoxy]-6,8-dihydro-5H-pyrido[3,4-d]pyrimidin-4-yl]-1-prop-2-enoyl-piperazin-2-yl]acetonitrile] | C (“C”>50% POC) | 0.1 to 1000 nM |
| C=CC(=O)N1CCN(c2nc(OC[C@@H]3C[C@@H](OC)CN3CC)nc3c2CCN(c2cccc(Cl)c2C(F)(F)F)C3)C[C@@H]1CC#N [Example 335, 2-[(2S)-4-[7-[3-chloro-2-(trifluoromethyl)phenyl]-2-[[(2S,4R)-1-ethyl-4-methoxy-pyrrolidin-2-yl]methoxy]-6,8-dihydro-5H-pyrido[3,4-d]pyrimidin-4-yl]-1-prop-2-enoyl-piperazin-2-yl]acetonitrile] | C (“C”>50% POC) | 0.1 to 1000 nM |
| C=CC(=O)N1C[C@H](C)N(c2nc(OC[C@@H]3CCCN3C)nc3c2CCN(c2cc(O)cc4ccccc24)C3)C[C@H]1C [Example 336, 1-[(2R,5S)-4-[7-(3-hydroxy-1-naphthyl)-2-[[(2S)-1-methylpyrrolidin-2-yl]methoxy]-6,8-dihydro-5H-pyrido[3,4-d]pyrimidin-4-yl]-2,5-dimethyl-piperazin-1-yl]prop-2-en-1-one] | C (“C”>50% POC) | 0.1 to 1000 nM |

Second part, led by results:

| POC (KRas G12C) | SMILES | IC50 [1] |
| --- | --- | --- |
| C (“C”>50% POC) | C=CC(=O)N1CCN(c2nc(OC[C@H]3CCCN3CCO)nc3c2CCN(c2cccc4ccccc24)C3)C[C@@H]1CC#N [Example 329, 2-[(2S)-4-[2-[[(2R)-1-(2-hydroxyethyl)pyrrolidin-2-yl]methoxy]-7-(1-naphthyl)-6,8-dihydro-5H-pyrido[3,4-d]pyrimidin-4-yl]-1-prop-2-enoyl-piperazin-2-yl]acetonitrile] | 0.1 to 1000 nM |
| C (“C”>50% POC) | C=CC(=O)N1CCN(c2nc(OC[C@@H]3CCCN3C)nc3c2CCN(c2cccc4ccc(F)cc24)C3)C[C@@H]1CC#N [Example 333, 2-[(2S)-4-[7-(7-fluoro-1-naphthyl)-2-[[(2S)-1-methylpyrrolidin-2-yl]methoxy]-6,8-dihydro-5H-pyrido[3,4-d]pyrimidin-4-yl]-1-prop-2-enoyl-piperazin-2-yl]acetonitrile] | 0.1 to 1000 nM |
| C (“C”>50% POC) | C=CC(=O)N1CCN(c2nc(OC[C@H]3CCCN3CC)nc3c2CCN(c2cccc4ccccc24)C3)C[C@@H]1CC#N [Example 334, 2-[(2S)-4-[2-[[(2R)-1-ethylpyrrolidin-2-yl]methoxy]-7-(1-naphthyl)-6,8-dihydro-5H-pyrido[3,4-d]pyrimidin-4-yl]-1-prop-2-enoyl-piperazin-2-yl]acetonitrile] | 0.1 to 1000 nM |
